The series can be described thus: Oral bioavailability in rat. In kind it is ADME, organism-based. The settings on record: in vivo.

One may read the bioavailability as the share of a dose that reaches the circulation, judged against a reference dose that is usually intravenous. Turning to `COc1cccc(C(=O)COc2ccc(CC3SC(=O)NC3=O)cc2)c1` (configuration not stated), the bioavailability amounted to 100%. To `CCc1ccc(C(=O)COc2ccc(CC3SC(=O)NC3=O)cc2)nc1` (configuration not stated) [MITOGLITAZONE] belongs 73%.

The values are drawn from ChEMBL document CHEMBL4261653, “PPARγ-sparing thiazolidinediones as insulin sensitizers. Design, synthesis and selection of compounds for clinical development” (Bioorg Med Chem, 2018).
